Series [1] concerns the target T1, AChE from Electrophorus electricus (type VI-S) (Electrophorus electricus, UniProt O42275).
T1 construct: purchased
Briefly: biochemical. How it is done: Acetylcholinesterase inhibitory activity was determined and modified from Ellman, as described elsewhere. […] The enzyme activity and the percentage inhibition were determined. […] All determinations were carried out at least three times and in triplicate wells.

A further series addresses Aβ1–42 (Homo sapiens, UniProt P05067). In words: Inhibition of self-induced Aβ1–42 aggregation (thioflavin T assay). The format is biochemical. The note with it: ThT fluorescence, Aβ1–42, 48 h at 37 °C, mean ± SD; read-out: Self-Induced Aβ IC50. As to the method: Inhibition of self-induced Aβ1–42 aggregation was assayed, as described elsewhere. […] After incubation, the samples were mixed with […] glycine/NaOH buffer (pH 8.5) containing 5 μM ThT. […] The fluorescence intensities were recorded, and the percentage of inhibition on aggregation was calculated by using the following equation: (1 − IFi/IFc) * 100% in which IFi and IFc were the fluorescence intensities obtained for Aβ1-42 aggregation group in the presence and absence of the test compounds, respectively, after subtracting the background fluorescence of 5 μM ThT in the blank buffers. […] The experiment was done in independent triplicates. […]

In series [2] the target is T2, AChE-induced Aβ1–42 aggregation (Electrophorus electricus, UniProt O42275).
T2 construct: purchased
T2 sequence (O42275 24-633): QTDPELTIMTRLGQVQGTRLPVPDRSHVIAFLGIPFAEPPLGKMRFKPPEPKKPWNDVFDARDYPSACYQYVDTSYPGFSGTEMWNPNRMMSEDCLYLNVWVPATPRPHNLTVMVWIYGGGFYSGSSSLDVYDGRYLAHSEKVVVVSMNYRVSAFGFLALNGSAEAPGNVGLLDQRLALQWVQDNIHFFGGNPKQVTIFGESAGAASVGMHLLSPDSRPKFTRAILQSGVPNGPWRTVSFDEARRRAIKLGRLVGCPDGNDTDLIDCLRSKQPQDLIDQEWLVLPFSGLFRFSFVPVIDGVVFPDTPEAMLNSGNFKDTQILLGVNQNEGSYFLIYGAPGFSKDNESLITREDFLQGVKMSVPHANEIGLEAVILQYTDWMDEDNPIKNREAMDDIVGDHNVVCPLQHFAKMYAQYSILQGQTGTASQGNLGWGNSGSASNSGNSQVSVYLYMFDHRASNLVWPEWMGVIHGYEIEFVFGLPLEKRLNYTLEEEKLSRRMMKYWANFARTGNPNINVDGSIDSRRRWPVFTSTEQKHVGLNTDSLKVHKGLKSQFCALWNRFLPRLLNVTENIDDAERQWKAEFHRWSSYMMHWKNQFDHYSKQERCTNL
Briefly: Inhibition of AChE-induced Aβ1–42 aggregation (thioflavin T assay). The format is biochemical. The following applies: for inhibitory effect on AChE-induced Aβ1–42 aggregation (in words): ThT-based fluorescence assay. How it is done:
Inhibition of AChE-induced Aβ1–42 aggregation was modified and measured using a thioflavin T (ThT) binding assay, as described elsewhere. Briefly, Aβ1–42 was dissolved in 50 mM phosphate buffer (pH 8.0). […] The fluorescence intensities were recorded, and the percentage of inhibition on aggregation was calculated by using the following equation: (1 – IFi/IFc) * 100%, in which IFi and IFc were the fluorescence of the AChE-induced Aβ1–42 aggregation group in the presence and absence of the test compounds, respectively, after subtracting the fluorescence of self Aβ1–42 aggregation and the background fluorescence of 5 μM ThT in the blank buffers. […] All determinations were carried out at least three times and in triplicate wells. […]

For series [3], the system named is SH-SY5Y cells. In words: Neuroprotection against Aβ1–42 toxicity (MTT). The format is cell-based, Human. The following applies: 0.1 to 10 µM with 25 µM Aβ1–42 for 24 h, compared to Aβ1–42-induced group. As to the method:
(§1) Human neuroblastoma cells (SH-SY5Y) were cultured in Dulbecco’s Modified Eagle Medium (DMEM/Ha’s F12) containing 50 IU/mL penicillin, […] streptomycin, 2 mM L-glutamine, and 10% fetal bovine serum. Cells were maintained at 37 °C in a humidified incubator in an atmosphere of 5% CO2 For the assay, the SH-SY5Y cells, at a density of 5 × 10^5 cell/mL, were seeded in a 96-well plate and incubated for 48 h.
For neuroprotection against Aβ1–42 toxicity, the Aβ1–42 preparation was modified from. Briefly, lyophilized Aβ1–42 was reconstituted in sterile water and keep at −80 °C until further use. […] Cell viability was determined by the MTT colorimetric method. The optical density of each well was measured at 550 nm in a […] Accureader M965 microplate reader. […] All data were expressed as a percentage of non-Aβ1–42-treated groups (control group). Cell viability of the control group was expressed as 100%. […]
Aβ has been implicated in the pathogenesis of AD. […] Therefore, the neuroprotective effect against Aβ1–42 toxicity of phellopterin was also determined in SH-SY5Y cells. Aβ1–42 at concentration 25 µM was treated with cells in the presence or absence of phellopterin at a concentration 0.1 to 10 µM for 24 h, and then the cell viability was determined by MTT assay. […]

Series [4] has as its system SH-SY5Y cells. In words: Neuroprotection against H2O2-induced cell damage (MTT). It is filed as cell-based, Human. The following applies: pre-incubation with 10 µM for 24 h, then 100 µM H2O2 for 2 h, compared to H2O2 treated group. How it is done: as §1
For neuroprotection against H2O2 investigation, the cells were pretreated with coumarin in various concentrations for 24 h. After removing unabsorbed test compounds by washing with phosphate buffer saline, the cells were treated with 100 µM H2O2 for 2 h to induce oxidative stress. Cell viability was determined by the MTT colorimetric method. The optical density of each well was measured at 550 nm. […] All data were expressed as a percentage of non-H2O2-treated groups (control group). The cell viability of the control group was expressed as 100%. The experiment was done in independent triplicates (4 wells/group).
The neuroprotective effect of phellopterin against oxidative stress was determined by colorimetric MTT assay in SH-SY5Y cells. Hydrogen peroxide at concentration 100 µM was used to induce oxidative damage. SH-SY5Y cells were pretreated with phellopterin at a concentration of 0.1 to 10 µM for 24 h prior to exposure to H2O2 for 2 h.

Series [5] relates to SH-SY5Y cells. In words: Cytotoxicity in SH-SY5Y cells (MTT). It is filed as cell-based. The note with it: 0.1 to 10 µM for 24 h. How it is done: as §1
For cytotoxicity evaluation, the cells were treated with potential coumarin derivatives in various concentrations for 24 h. After that, cell viability was determined by staining the cells with 3-(4, 5-dimethyl-2-thiazolyl)-2, 5-diphenyl-2H-tetrazolium bromide, and MTT (5 mg/mL in PBS) for 2 h. The optical density of each well was measured at 550 nm in a […] Accureader M965 microplate reader.

Where [6] appears, read: Ellman method, 0.2 Units/mL AChE, pH 7.4, mean ± SD, read-out: AChE assay IC50.

Broadly, the IC50 is the point on the concentration scale where inhibition reaches its midpoint.

Read-outs that look alike come from different tables or passages of the source.

Aβ1–42, sequence (P05067 672-713 limits assumed): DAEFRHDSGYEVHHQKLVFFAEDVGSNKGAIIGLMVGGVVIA
T1 sequence (O42275 24-633): as the sequence (O42275 24-633) above

As to `COc1cc2oc(=O)ccc2c(OC)c1O` [Fraxinol, fraxinol], the results for the IC50 (in series [1] (setting [6]); at Aβ1–42; in series [2]) were 18 ± 7 µM, 209 ± 21 µM and over 500 µM, respectively. The “inhibitory effect on AChE-induced Aβ1–42 aggregation (in words)” value in series [2] is given as “did not have inhibitory effects”.
Turning to `COc1cc2oc(=O)ccc2c(OC)c1CC(=O)C(C)C` [Toddanone, toddanone], the IC50 was found to be 46 ± 3 µM in series [1] (setting [6]), 76 ± 1 µM on Aβ1–42 and 110 ± 2 µM in series [2].
In the same order, the values of `COc1cc2oc(=O)ccc2c(OC)c1C[C@@H](O)C(C)(C)O` [Toddalolactone, toddalolactone] are 49 ± 5 µM, 220 ± 1 µM and 105 ± 9 µM.
As for `COc1c2ccoc2c(OC)c2oc(=O)ccc12` [Isopimpinellin, isopimpinellin], the values for the IC50 (in series [1]; at Aβ1–42; in series [2]) were 41 ± 1 µM, 125 ± 13 µM and over 500 µM, respectively. The “inhibitory effect on AChE-induced Aβ1–42 aggregation (in words)” value in series [2] is reported as “did not have inhibitory effects”.
Take `COc1c2ccoc2c(OCC=C(C)C)c2oc(=O)ccc12` [Phellopterin, phellopterin]: the “effect on Aβ1–42-induced cell damage (cell viability)” value in the series with SH-SY5Y cells [3] is given as “significantly increase cell viability”. For the same compound, the “effect on H2O2-induced cell damage (cell viability)” value in the series with SH-SY5Y cells [4] was “significantly attenuated the H2O2-induced cell damage”. Moreover, the half-inhibitory concentration (IC50) was determined as 38 ± 3 µM in series [1] (setting [6]), 95 ± 3 µM on Aβ1–42 and 97 ± 7 µM in series [2]. Also, in the series with SH-SY5Y cells [5], the “viability of SH-SY5Y cells (cytotoxicity)” value was “no significant change”.
As for `COc1cc2oc(=O)ccc2c(OC)c1CC=C(C)C` [Toddaculin, toddaculin], the half-maximal inhibitory concentration (IC50) amounted to 53 ± 9 µM in series [1] (setting [6]), 143 ± 4 µM at Aβ1–42 and 232 ± 10 µM in series [2].
As to `COC1=CC(=O)c2cc(C)cc(-c3c(OC)cc(OC)c4ccc(=O)oc34)c2C1=O` [Toddacoumaquinone, toddacoumaquinone], the IC50 in series [1] (setting [6]) worked out at 46 ± 12 µM; at Aβ1–42 it was 145 ± 2 µM; in series [2] it was 72 ± 5 µM.
In the same order, the values of `COc1cc(OC)c2ccc(=O)oc2c1/C=C/C(C)=O` [Toddalenone, toddalenone] are 40 ± 4 µM, 99 ± 1 µM and 211 ± 29 µM.
In the same order, the values of `COc1cc(OC)c2ccc(=O)oc2c1OCC=C(C)C` [Artanin, artanin] are 51 ± 2 µM, 124 ± 10 µM and 98 ± 19 µM.

The record behind these values is publication PMC7277748 (Biomedicines, 2020).
